According to paper PMC5218480 (PLoS ONE, 2017):

System: MV-4-11 cells
Assay: Gene expression microarray analysis (Affymetrix PrimeView) and GSEA
Format: cell-based, human
Design: RFU PODN (11730768_x_at) / Fold change /veh PODN (11730768_x_at) / RFU LINC00158 (11744669_a_at) / Fold change /veh LINC00158 (11744669_a_at) / RFU DUSP10 (11751237_a_at) / Fold change /veh DUSP10 (11751237_a_at) / RFU ID3 (11757404_x_at) / Fold change /veh ID3 (11757404_x_at) / RFU PLEKHG5 (11737974_s_at) / Fold change /veh PLEKHG5 (11737974_s_at) / RFU LRRC4B (11730491_at) / Fold change /veh LRRC4B (11730491_at) / RFU GIMAP4 (11747438_a_at) / Fold change /veh GIMAP4 (11747438_a_at) / RFU KRT8 (11758183_x_at) / Fold change /veh KRT8 (11758183_x_at) / RFU CNN1 (11734310_a_at) / Fold change /veh CNN1 (11734310_a_at) / RFU VPS37D (11726825_at) / Fold change /veh VPS37D (11726825_at) / RFU C10orf10 (11716522_x_at) / Fold change /veh C10orf10 (11716522_x_at) / RFU KIR2DL2 /// KIR2DL4 /// KIR2DL5A /// KIR2DL5B /// KIR2DS1 /// KIR2DS2 /// KIR2DS3 /// KIR2DS4 /// KIR3DL3 /// KIR3DL3 /// KIR3DS1 (11738374_at) / Fold change /veh KIR2DL2 /// KIR2DL4 /// KIR2DL5A /// KIR2DL5B /// KIR2DS1 /// KIR2DS2 /// KIR2DS3 /// KIR2DS4 /// KIR3DL3 /// KIR3DL3 /// KIR3DS1 (11738374_at) / RFU C1QL1 (11718748_at) / Fold change /veh C1QL1 (11718748_at) / RFU TMPRSS4 (11747572_a_at) / Fold change /veh TMPRSS4 (11747572_a_at) / RFU HAMP (11756126_x_at) / Fold change /veh HAMP (11756126_x_at) / RFU RNFT2 (11725882_a_at) / Fold change /veh RNFT2 (11725882_a_at) / RFU NR4A2 (11747474_a_at) / Fold change /veh NR4A2 (11747474_a_at) / RFU ABCC12 (11746883_a_at) / Fold change /veh ABCC12 (11746883_a_at) / RFU TMEM136 (11760407_x_at) / Fold change /veh TMEM136 (11760407_x_at) / RFU CLDN22 /// WWC2 (11732394_at) / Fold change /veh CLDN22 /// WWC2 (11732394_at) / RFU HLA-DPB1 (11760878_x_at) / Fold change /veh HLA-DPB1 (11760878_x_at) / RFU SPINT1 (11716480_a_at) / Fold change /veh SPINT1 (11716480_a_at) / RFU GAP43 (11754022_s_at) / Fold change /veh GAP43 (11754022_s_at) / RFU A4GNT (11735810_at) / Fold change /veh A4GNT (11735810_at) / RFU PRB3 (11715151_x_at) / Fold change /veh PRB3 (11715151_x_at) / RFU TUBB4B (11761932_at) / Fold change /veh TUBB4B (11761932_at) / RFU CAPN14 (11732068_a_at) / Fold change /veh CAPN14 (11732068_a_at) / RFU TMCC2 (11721928_a_at) / Fold change /veh TMCC2 (11721928_a_at) / RFU IRGQ (11745062_a_at) / Fold change /veh IRGQ (11745062_a_at) / RFU FAM174B (11720279_a_at) / Fold change /veh FAM174B (11720279_a_at) / RFU TMPRSS4 (11748680_a_at) / Fold change /veh TMPRSS4 (11748680_a_at) / RFU FAM212B (11763350_a_at) / Fold change /veh FAM212B (11763350_a_at) / RFU PLEKHG5 (11743358_a_at) / Fold change /veh PLEKHG5 (11743358_a_at) / RFU ZSCAN30 (11745921_a_at) / Fold change /veh ZSCAN30 (11745921_a_at) / RFU CMKLR1 (11741424_a_at) / Fold change /veh CMKLR1 (11741424_a_at) / RFU LOC101060620 /// MAPK8IP1 (11723275_at) / Fold change /veh LOC101060620 /// MAPK8IP1 (11723275_at) / RFU SPTSSB (11747773_x_at) / Fold change /veh SPTSSB (11747773_x_at) / RFU PRSS12 (11739890_at) / Fold change /veh PRSS12 (11739890_at) / RFU BIN1 (11741810_x_at) / Fold change /veh BIN1 (11741810_x_at) / RFU WNT11 (11732464_a_at) / Fold change /veh WNT11 (11732464_a_at) / RFU C10orf10 (11716521_a_at) / Fold change /veh C10orf10 (11716521_a_at) / RFU C5orf56 (11738089_at) / Fold change /veh C5orf56 (11738089_at) / RFU CYB561 (11721691_x_at) / Fold change /veh CYB561 (11721691_x_at) / RFU ANKRD19P (11752326_a_at) / Fold change /veh ANKRD19P (11752326_a_at) / RFU OR2T12 /// OR2T33 /// OR2T8 (11738714_s_at) / Fold change /veh OR2T12 /// OR2T33 /// OR2T8 (11738714_s_at) / RFU VCAN (11748164_a_at) / Fold change /veh VCAN (11748164_a_at) / RFU JSRP1 (11732532_at) / Fold change /veh JSRP1 (11732532_at) / RFU KRTAP10-11 (11738290_x_at) / Fold change /veh KRTAP10-11 (11738290_x_at) / RFU MYO3A (11730013_a_at) / Fold change /veh MYO3A (11730013_a_at) / RFU EBF3 (11725865_a_at) / Fold change /veh EBF3 (11725865_a_at) / RFU CAMK2N1 (11719241_x_at) / Fold change /veh CAMK2N1 (11719241_x_at) / RFU C5orf56 (11738088_a_at) / Fold change /veh C5orf56 (11738088_a_at) / RFU OLFML3 (11715873_a_at) / Fold change /veh OLFML3 (11715873_a_at) / RFU LOC100653217 /// NTM (11731650_a_at) / Fold change /veh LOC100653217 /// NTM (11731650_a_at) / RFU MAPK11 (11762145_a_at) / Fold change /veh MAPK11 (11762145_a_at) / RFU FIZ1 (11724087_x_at) / Fold change /veh FIZ1 (11724087_x_at) / RFU OASL (11726364_x_at) / Fold change /veh OASL (11726364_x_at) / RFU SOX15 (11748057_x_at) / Fold change /veh SOX15 (11748057_x_at) / RFU CD79A (11719716_a_at) / Fold change /veh CD79A (11719716_a_at) / RFU HIST1H1D (11736915_at) / Fold change /veh HIST1H1D (11736915_at) / RFU CASKIN2 (11723855_a_at) / Fold change /veh CASKIN2 (11723855_a_at) / RFU LOC730098 (11760151_x_at) / Fold change /veh LOC730098 (11760151_x_at) / RFU OR4N2 (11742367_at) / Fold change /veh OR4N2 (11742367_at) / RFU PRRT2 (11749266_a_at) / Fold change /veh PRRT2 (11749266_a_at) / RFU SNX32 (11753110_a_at) / Fold change /veh SNX32 (11753110_a_at) / RFU CDHR5 (11726645_a_at) / Fold change /veh CDHR5 (11726645_a_at) / RFU RCAN1 (11760418_a_at) / Fold change /veh RCAN1 (11760418_a_at) / RFU FAM167A (11723789_a_at) / Fold change /veh FAM167A (11723789_a_at) / RFU FAM26E (11764081_at) / Fold change /veh FAM26E (11764081_at) / RFU ISYNA1 (11749810_s_at) / Fold change /veh ISYNA1 (11749810_s_at) / RFU ACY1 (11761880_at) / Fold change /veh ACY1 (11761880_at) / RFU 11764098_at / Fold change /veh 11764098_at / RFU SAMD14 (11745864_x_at) / Fold change /veh SAMD14 (11745864_x_at) / RFU NPB (11741838_a_at) / Fold change /veh NPB (11741838_a_at) / RFU TMPRSS6 (11731388_a_at) / Fold change /veh TMPRSS6 (11731388_a_at) / RFU KRTAP10-2 (11738614_at) / Fold change /veh KRTAP10-2 (11738614_at) / RFU ARHGAP8 /// PRR5-ARHGAP8 (11727945_x_at) / Fold change /veh ARHGAP8 /// PRR5-ARHGAP8 (11727945_x_at) / RFU KRTAP5-7 /// NADSYN1 (11734609_at) / Fold change /veh KRTAP5-7 /// NADSYN1 (11734609_at) / RFU RASL12 (11751679_a_at) / Fold change /veh RASL12 (11751679_a_at) / RFU CDKN2B (11736163_a_at) / Fold change /veh CDKN2B (11736163_a_at) / RFU PRF1 (11729649_at) / Fold change /veh PRF1 (11729649_at) / RFU, ZNF638 /// ZNF638-IT1 / Fold change vs veh, ZNF638 /// ZNF638-IT1 / RFU, PANK3 / Fold change vs veh, PANK3 / RFU, SH3YL1 / Fold change vs veh, SH3YL1 / RFU, ZEB2 / Fold change vs veh, ZEB2 / RFU, NRIP1 / Fold change vs veh, NRIP1 / RFU, PTTG1IP / Fold change vs veh, PTTG1IP / RFU, CAPN2 / Fold change vs veh, CAPN2 / RFU, MED14 / Fold change vs veh, MED14 / RFU, SNORA58 / Fold change vs veh, SNORA58 / RFU, C1orf63 / Fold change vs veh, C1orf63 / RFU, LRRFIP1 / Fold change vs veh, LRRFIP1 / RFU, NDUFAF7 / Fold change vs veh, NDUFAF7 / RFU, SLC12A2 / Fold change vs veh, SLC12A2 / RFU, IBTK / Fold change vs veh, IBTK / RFU, ESF1 / Fold change vs veh, ESF1 / Fold change vs veh, TMEM50B / RFU, TAOK1 / Fold change vs veh, TAOK1 / RFU, ACBD3 / Fold change vs veh, ACBD3 / RFU, TMA16 / Fold change vs veh, TMA16 / RFU, RWDD3 / Fold change vs veh, RWDD3 / RFU, BCAT1 / Fold change vs veh, BCAT1 / RFU, EDEM3 / Fold change vs veh, EDEM3 / RFU, TMEM33 / Fold change vs veh, TMEM33 / RFU, WDR75 / Fold change vs veh, WDR75 / RFU, AHCTF1 / Fold change vs veh, AHCTF1 / RFU, TFRC / Fold change vs veh, TFRC / RFU, ZDHHC17 / Fold change vs veh, ZDHHC17 / RFU, NOM1 / Fold change vs veh, NOM1 / RFU, ARL8B / Fold change vs veh, ARL8B / RFU, ZBTB11 / Fold change vs veh, ZBTB11 / RFU, TAMM41 / Fold change vs veh, TAMM41 / RFU, KIAA1704 /// LOC100996395 / Fold change vs veh, KIAA1704 /// LOC100996395 / RFU, ING1 / Fold change vs veh, ING1 / RFU, TRMT61B / Fold change vs veh, TRMT61B / RFU, FUBP3 / Fold change vs veh, FUBP3 / RFU, TP53 / Fold change vs veh, TP53 / RFU, TNKS2 / Fold change vs veh, TNKS2 / RFU, ZFP14 / Fold change vs veh, ZFP14 / RFU, ACTR2 / Fold change vs veh, ACTR2 / RFU, PPP3R1 / Fold change vs veh, PPP3R1 / RFU, PIK3R1 / Fold change vs veh, PIK3R1 / RFU, HNRNPA1 / Fold change vs veh, HNRNPA1 / RFU, RNF170 / Fold change vs veh, RNF170 / RFU, ZNF28 / Fold change vs veh, ZNF28 / RFU, RNGTT / Fold change vs veh, RNGTT / RFU, OGT / Fold change vs veh, OGT / RFU, BRD1 / Fold change vs veh, BRD1 / RFU, MARS / Fold change vs veh, MARS / RFU, ZNF655 / Fold change vs veh, ZNF655 / RFU, FAHD1 / Fold change vs veh, FAHD1 / RFU, BDP1 / Fold change vs veh, BDP1 / RFU, LRRCC1 / Fold change vs veh, LRRCC1 / RFU, ARID1A / Fold change vs veh, ARID1A / RFU, ZNF146 / Fold change vs veh, ZNF146 / RFU, ZNF330 / Fold change vs veh, ZNF330 / RFU, GPN3 / Fold change vs veh, GPN3 / RFU, C9orf123 / Fold change vs veh, C9orf123 / RFU, N4BP2L2 / Fold change vs veh, N4BP2L2 / RFU, ARFIP1 / Fold change vs veh, ARFIP1 / RFU, FAM179B / Fold change vs veh, FAM179B / RFU, BCL10 / Fold change vs veh, BCL10 / RFU, UHRF1BP1L / Fold change vs veh, UHRF1BP1L / RFU, BET1 / Fold change vs veh, BET1 / RFU, CNOT2 / Fold change vs veh, CNOT2 / RFU, ZNF268 / Fold change vs veh, ZNF268 / Fold change vs veh, ZNF507 / RFU, DGCR2 / Fold change vs veh, DGCR2 / RFU, WDSUB1 / Fold change vs veh, WDSUB1 / Fold change vs veh, HSP90B1 /// MIR3652 / RFU, ADSS / Fold change vs veh, ADSS / RFU, GK / Fold change vs veh, GK / RFU, ZNF148 / Fold change vs veh, ZNF148 / RFU, TAF9 / Fold change vs veh, TAF9 / RFU, SLC1A5 / Fold change vs veh, SLC1A5 / RFU, SLMO2 / Fold change vs veh, SLMO2 / RFU, ABCC4 / Fold change vs veh, ABCC4 / RFU, LOC101060439 /// RAP1B / Fold change vs veh, LOC101060439 /// RAP1B / RFU, RFX7 / Fold change vs veh, RFX7 / RFU, GTPBP10 / Fold change vs veh, GTPBP10 / RFU, CNEP1R1 / Fold change vs veh, CNEP1R1 / RFU, BIVM-ERCC5 /// ERCC5 / Fold change vs veh, BIVM-ERCC5 /// ERCC5 / RFU, ILF3 / Fold change vs veh, ILF3 / RFU 11762660_at / Fold change /veh 11762660_at / RFU VCAN (11757783_s_at) / Fold change /veh VCAN (11757783_s_at) / RFU DDX43 (11728927_at) / Fold change /veh DDX43 (11728927_at) / RFU KRT8 (11758188_x_at) / Fold change /veh KRT8 (11758188_x_at) / RFU NKD1 (11759106_at) / Fold change /veh NKD1 (11759106_at) / RFU SRD5A1 (11742802_a_at) / Fold change /veh SRD5A1 (11742802_a_at) / RFU TPSAB1 /// TPSB2 (11721975_s_at) / Fold change /veh TPSAB1 /// TPSB2 (11721975_s_at) / RFU GSTM3 (11746129_a_at) / Fold change /veh GSTM3 (11746129_a_at) / RFU IL23R (11737362_x_at) / Fold change /veh IL23R (11737362_x_at) / RFU TMEM51 (11727254_a_at) / Fold change /veh TMEM51 (11727254_a_at) / RFU PIWIL2 (11732686_x_at) / Fold change /veh PIWIL2 (11732686_x_at) / RFU ORM1 (11744905_x_at) / Fold change /veh ORM1 (11744905_x_at) / RFU CCDC152 (11743942_at) / Fold change /veh CCDC152 (11743942_at) / RFU ECM1 (11717891_a_at) / Fold change /veh ECM1 (11717891_a_at) / RFU IL23R (11748794_a_at) / Fold change /veh IL23R (11748794_a_at) / RFU TNFAIP8L3 (11732012_x_at) / Fold change /veh TNFAIP8L3 (11732012_x_at) / RFU MBOAT4 (11741988_at) / Fold change /veh MBOAT4 (11741988_at) / RFU 11764193_at / Fold change /veh 11764193_at / RFU TMEM53 (11763286_at) / Fold change /veh TMEM53 (11763286_at) / RFU MAGEB2 (11727129_at) / Fold change /veh MAGEB2 (11727129_at) / RFU TMEM200A (11744735_a_at) / Fold change /veh TMEM200A (11744735_a_at) / RFU CCDC152 (11751479_a_at) / Fold change /veh CCDC152 (11751479_a_at) / RFU FAM211A (11726209_a_at) / Fold change /veh FAM211A (11726209_a_at) / RFU RGS16 (11746705_a_at) / Fold change /veh RGS16 (11746705_a_at) / RFU VCAN (11755009_s_at) / Fold change /veh VCAN (11755009_s_at) / RFU RHOB (11743442_s_at) / Fold change /veh RHOB (11743442_s_at) / RFU RGS16 (11720943_a_at) / Fold change /veh RGS16 (11720943_a_at) / RFU RGS16 (11720944_at) / Fold change /veh RGS16 (11720944_at) / RFU, VPS4B / Fold change vs veh, VPS4B / RFU, CREB1 / Fold change vs veh, CREB1 / RFU, DNAJC13 / Fold change vs veh, DNAJC13 / RFU, GNAQ / Fold change vs veh, GNAQ / RFU, CDK5R1 / Fold change vs veh, CDK5R1 / RFU, ZRANB3 / Fold change vs veh, ZRANB3 / RFU, CUL4A / Fold change vs veh, CUL4A / RFU, CCNY / Fold change vs veh, CCNY / RFU, UFL1 / Fold change vs veh, UFL1 / RFU, COG3 / Fold change vs veh, COG3 / RFU, DIAPH2 / Fold change vs veh, DIAPH2 / RFU, SKA2 / Fold change vs veh, SKA2 / RFU, AFF3 / Fold change vs veh, AFF3 / RFU, LMF1 / Fold change vs veh, LMF1 / RFU, IPO11 / Fold change vs veh, IPO11 / RFU, DFFB / Fold change vs veh, DFFB / RFU, FOXP1 / Fold change vs veh, FOXP1 / RFU, CARD8 / Fold change vs veh, CARD8 / RFU, STRN3 / Fold change vs veh, STRN3 / RFU, ADK / Fold change vs veh, ADK / RFU, RASSF2 / Fold change vs veh, RASSF2 / RFU, WIPF1 / Fold change vs veh, WIPF1 / RFU, LARP1B / Fold change vs veh, LARP1B / RFU, RASA1 / Fold change vs veh, RASA1 / RFU, RB1 / Fold change vs veh, RB1 / RFU, PPFIA1 / Fold change vs veh, PPFIA1 / RFU, MAT2A / Fold change vs veh, MAT2A / RFU, CCT5 / Fold change vs veh, CCT5 / RFU, WDR92 / Fold change vs veh, WDR92 / RFU, CUX1 / Fold change vs veh, CUX1 / RFU, TTC7A / Fold change vs veh, TTC7A / RFU, TMEM135 / Fold change vs veh, TMEM135 / RFU, DEPTOR / Fold change vs veh, DEPTOR / RFU, CPM / Fold change vs veh, CPM / RFU, DNAJB6 / Fold change vs veh, DNAJB6 / RFU, CACNA2D3 / Fold change vs veh, CACNA2D3 / RFU, DTX4 / Fold change vs veh, DTX4 / RFU, TFCP2 / Fold change vs veh, TFCP2 / RFU, GMCL1 /// GMCL1P1 / Fold change vs veh, GMCL1 /// GMCL1P1 / RFU, AEBP2 / Fold change vs veh, AEBP2 / RFU, SNHG1 /// SNORD22 /// SNORD25 /// SNORD26 /// SNORD27 /// SNORD28 /// SNORD29 /// SNORD31 / Fold change vs veh, SNHG1 /// SNORD22 /// SNORD25 /// SNORD26 /// SNORD27 /// SNORD28 /// SNORD29 /// SNORD31 / Fold change (Aza/veh), C12orf56 (ProbeSet 11735607_a_at) / Fold change (ACY-1035/veh), C12orf56 (ProbeSet 11735607_a_at) / Fold change (Aza/veh), FGFR1OP (ProbeSet 11751329_s_at) / Fold change (ACY-1035/veh), FGFR1OP (ProbeSet 11751329_s_at) / Fold change (Aza/veh), VPS36 (ProbeSet 11739960_a_at) / Fold change (ACY-1035/veh), VPS36 (ProbeSet 11739960_a_at) / RFU SYPL1 (11715823_x_at) / Fold change /veh SYPL1 (11715823_x_at) / RFU IGFBP7 (11715501_s_at) / Fold change /veh IGFBP7 (11715501_s_at) / RFU REEP3 (11722064_at) / Fold change /veh REEP3 (11722064_at) / RFU IGLL1 (11728026_x_at) / Fold change /veh IGLL1 (11728026_x_at): dose or concentration left out as unconfirmed
Conditions: MV-4-11 cells, 48 hours

Nc1ncn([C@@H]2O[C@H](CO)[C@@H](O)[C@H]2O)c(=O)n1 [azacitidine]
Fold change /veh OR4N2 (11742367_at): 1.01
